Km data for one compound are collected here from article PMC7588914, “Luminescence of Cypridina Luciferin in the Presence of Human Plasma Alpha 1-Acid Glycoprotein” (International Journal of Molecular Sciences, 2020).

This experiment has as its system T1, human plasma alpha 1-acid glycoprotein (hAGP).
T1 construct: gene ORM1; native, purified from human plasma (commercial, Sigma-Aldrich); secreted glycoprotein, signal peptide removed; plasma preparation is normally a mix of ORM1 and ORM2 products
Briefly: luminescence intensity, Michaelis-Menten fit. The settings on record: 50 mM Gly-NaOH pH 9.5, room temperature, 25 μg/mL hAGP; hAGP treated as a luciferase. In kind it is biochemical.

Broadly, the Km is the substrate concentration at which the rate is half of its maximum.

Structures are written as SMILES.

As for `CC[C@H](C)c1nc2c(CCCNC(=N)N)[nH]c(-c3c[nH]c4ccccc34)cn-2c1=O` [Cypridina luciferin], the Km came out at 0.46 µM.
